Experimental data reported in ChEMBL document CHEMBL4261644, “Novel Symmetrical Benzazolyl Derivatives Endowed with Potent Anti-Heparanase Activity” (J Med Chem, 2018).
One block for each molecule: values may come before it. The source made the active and inactive calls. The rule behind the calls is not given here.

What was measured:
Heparanase = target: T1, Heparanase (Homo sapiens, UniProt Q9Y251); experiment: Inhibition of recombinant HPSE (unknown origin) using fondaparinux as substrate incubated for 3 hrs in absence of light by WST1 assay
T1 sequence (Q9Y251 whole entry): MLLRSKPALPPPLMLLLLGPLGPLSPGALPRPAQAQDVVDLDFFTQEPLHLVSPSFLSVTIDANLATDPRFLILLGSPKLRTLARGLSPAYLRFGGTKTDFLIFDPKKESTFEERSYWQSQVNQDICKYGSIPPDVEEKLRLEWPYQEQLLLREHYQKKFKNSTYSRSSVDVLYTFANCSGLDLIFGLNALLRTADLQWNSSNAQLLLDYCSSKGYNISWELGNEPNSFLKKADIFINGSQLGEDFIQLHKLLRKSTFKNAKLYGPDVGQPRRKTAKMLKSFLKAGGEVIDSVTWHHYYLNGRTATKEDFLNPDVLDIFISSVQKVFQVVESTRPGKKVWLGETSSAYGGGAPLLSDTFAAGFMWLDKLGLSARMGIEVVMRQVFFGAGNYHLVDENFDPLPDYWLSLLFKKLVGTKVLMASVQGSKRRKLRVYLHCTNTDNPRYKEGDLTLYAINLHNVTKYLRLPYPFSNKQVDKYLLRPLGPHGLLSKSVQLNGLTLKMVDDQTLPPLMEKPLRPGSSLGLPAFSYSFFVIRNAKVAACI

HT-1080 [1] = experiment: Antiproliferative activity against human HT1080 cells after 72 hrs by SRB assay; type: cell-based; settings: ht-1080
U-87 MG [2] = experiment: Antiproliferative activity against human U87MG cells after 72 hrs by SRB assay; type: cell-based, U-87MG ATCC; settings: u-87mg atcc
U2OS [3] = experiment: Antiproliferative activity against human U2OS cells after 72 hrs by SRB assay; type: cell-based; settings: u2os
HT-1080 [4] = experiment: Anti-invasive activity in human HT1080 cells assessed as reduction in invasive potential at 10 uM after 24 hrs by matrigel invasion assay relative to control; type: functional; settings: HT-1080, 24 h
U-87 MG [5] = experiment: Anti-invasive activity in human U87MG cells assessed as reduction in invasive potential at 10 uM after 24 hrs by matrigel invasion assay relative to control; type: functional, U-87MG ATCC
U2OS [6] = experiment: Anti-invasive activity in human U2OS cells assessed as reduction in invasive potential at 10 uM after 24 hrs by matrigel invasion assay relative to control; type: functional
[7] = Antiproliferative activity against HPSE-expressing human CME1 cells after 72 hrs by SRB assay; type: functional
Homo sapiens [8] = species: Homo sapiens; experiment: Anti-invasive activity in human CME1 cells assessed as reduction in invasive potential after 24 hrs by matrigel invasion assay; type: functional, cell-based
Homo sapiens [9] = species: Homo sapiens; experiment: Anti-invasive activity in human CME1 cells assessed as reduction in invasive potential at […] uM after 72 hrs by matrigel invasion assay; type: functional, cell-based
[10] = target: T2, Heparanase (Homo sapiens) (UniProt Q9Y251); experiment: Inhibition of HPSE in human HT1080 cells assessed as reduction in FGF1 mRNA expression after 24 hrs by qPCR analysis relative to control; type: cell-based
T2 sequence (whole entry): T1 sequence (Q9Y251 whole entry)

[11] = target: T2, Heparanase (Homo sapiens); experiment: Inhibition of HPSE in human HT1080 cells assessed as reduction in FGF2 mRNA expression after 24 hrs by qPCR analysis relative to control; type: cell-based
[12] = target: T2, Heparanase (Homo sapiens); experiment: Inhibition of HPSE in human HT1080 cells assessed as reduction in VEGF mRNA expression after 24 hrs by qPCR analysis relative to control; type: cell-based
[13] = target: T2, Heparanase (Homo sapiens); experiment: Inhibition of HPSE in human HT1080 cells assessed as reduction in MMP9 mRNA expression after 24 hrs by qPCR analysis relative to control; type: cell-based
[14] = target: T2, Heparanase (Homo sapiens); experiment: Inhibition of HPSE in human HT1080 cells assessed as reduction in HPSE mRNA expression after 24 hrs by qPCR analysis relative to control; type: cell-based
Homo sapiens [15] = species: Homo sapiens; experiment: Anti-invasive activity in human CME1 cells assessed as reduction in invasive potential at […] uM after 24 hrs by matrigel invasion assay; type: functional, cell-based

- IC50 (Heparanase): 1.76 µM
Compound: O=C(O)Cc1cccc(NC(=O)c2ccc(NC(=O)Nc3ccc(C(=O)Nc4cccc(CC(=O)O)c4)cc3)cc2)c1

- IC50 (Heparanase): 0.37 µM
- IC50 (HT-1080 [1]): Not Active
- IC50 (U-87 MG [2]): Not Active
- IC50 (U2OS [3]): Not Active
Compound: CC(NC(=O)Cc1ccc2oc(-c3ccc(NC(=O)Nc4ccc(-c5nc6cc(CC(=O)NC(C)C(=O)O)ccc6o5)cc4F)c(F)c3)nc2c1)C(=O)O (stereo not given)
- inhibition at 10 µM (HT-1080 [4]): < 50%
- inhibition at 10 µM (U-87 MG [5]): 50 to 90%
- inhibition at 10 µM (U2OS [6]): < 50%

- IC50 (Heparanase): > 10 µM
Compound: CC(C)CCNC(=O)Cc1ccc2oc(-c3ccc(NC(=O)Nc4ccc(-c5nc6cc(CC(=O)NCCC(C)C)ccc6o5)cc4F)c(F)c3)nc2c1

- IC50 (Heparanase): 6.02 µM
Compound: N=C(Nc1ccc(-c2nc3cc(CC(=O)O)ccc3o2)cc1)Nc1ccc(-c2nc3cc(CC(=O)O)ccc3o2)cc1

- IC50 (Heparanase): > 10 µM
Compound: O=C(O)Cc1ccc2oc(N3CCC(NC(=O)NC4CCN(c5nc6cc(CC(=O)O)ccc6o5)CC4)CC3)nc2c1

- IC50 (Heparanase): > 10 µM
Compound: O=C(O)Cc1ccc2oc(-c3cccc(NC(=O)Nc4cccc(-c5nc6cc(CC(=O)O)ccc6o5)c4)c3)nc2c1

- IC50 (Heparanase): 0.82 µM
Compound: O=C(Cc1ccc2[nH]c(-c3ccc(NC(=O)Nc4ccc(-c5nc6cc(CC(=O)NC(Cc7ccccc7)C(=O)O)ccc6[nH]5)cc4F)c(F)c3)nc2c1)NC(Cc1ccccc1)C(=O)O (stereo not given)

- IC50 (Heparanase): > 10 µM
Compound: O=C(O)Cc1ccc(O)c(NC(=O)c2ccc(CC(O)Cc3ccc(C(=O)Nc4cc(CC(=O)O)ccc4O)cc3)cc2)c1

- IC50 (Heparanase): 2.61 µM
Compound: O=C(O)Cc1cccc(NC(=O)c2ccc(NC(=S)Nc3ccc(C(=O)Nc4cccc(CC(=O)O)c4)cc3F)c(F)c2)c1

- IC50 (Heparanase): 0.98 µM
Compound: O=C(O)Cc1ccc2[nH]c(-c3ccc(NC(=O)Nc4ccc(-c5nc6cc(CC(=O)O)ccc6[nH]5)cc4F)c(F)c3)nc2c1

- IC50 (Heparanase): > 10 µM
Compound: O=C(O)CNC(=O)Cc1ccc2[nH]c(-c3ccc(NC(=O)Nc4ccc(-c5nc6cc(CC(=O)NCC(=O)O)ccc6[nH]5)cc4F)c(F)c3)nc2c1

- IC50 (Heparanase): > 10 µM
Compound: O=C(Cc1ccc2[nH]c(-c3ccc(NC(=O)Nc4ccc(-c5nc6cc(CC(=O)NCB(O)O)ccc6[nH]5)cc4F)c(F)c3)nc2c1)NCB(O)O

- IC50 (Heparanase): > 10 µM
Compound: Cc1cc2nc(-c3ccc(NC(=O)Nc4ccc(-c5nc6cc(C)c(C)cc6o5)cc4)cc3)oc2cc1C

- IC50 (Heparanase): > 10 µM
Compound: O=C(O)Cc1cccc(NS(=O)(=O)c2ccc(NC(=O)Nc3ccc(S(=O)(=O)Nc4cccc(CC(=O)O)c4)cc3)cc2)c1

- IC50 (Heparanase): 0.18 µM
- IC50 (HT-1080 [1]): Not Active
- IC50 (U-87 MG [2]): Not Active
- IC50 (U2OS [3]): Not Active
- inhibition [10]: Active
- inhibition [11]: Active
- inhibition [12]: Active
- inhibition [13]: Active
- inhibition [14]: Active
Compound: O=C(O)Cc1ccc2oc(-c3ccc(NC(=O)Nc4ccc(-c5nc6cc(CC(=O)O)ccc6o5)cc4F)c(F)c3)nc2c1
- IC50 [7]: 9.5 µM
- inhibition at 10 µM (HT-1080 [4]): < 50%
- inhibition at 10 µM (U-87 MG [5]): 50 to 90%
- inhibition at 10 µM (U2OS [6]): 50 to 90%
- Activity (Homo sapiens [8]): Dose-dependent effect
- Activity (Homo sapiens [9]): Active
- Activity (Homo sapiens [15]): inactive

- IC50 (Heparanase): 3.2 µM
- IC50 (HT-1080 [1]): Not Active
- IC50 (U-87 MG [2]): Not Active
- IC50 (U2OS [3]): Not Active
Compound: O=C(O)Cc1ccc2oc(-c3ccc(NC(=O)Nc4ccc(-c5nc6cc(CC(=O)O)ccc6o5)cc4)cc3)nc2c1
